Assays:
[1] = system: American cockroach (Periplaneta americana); assay: American cockroach mortality on treated filter paper; assay type: in vivo; conditions: 24 h
Text: (§1) The presence of a synergistic effect between the two active ingredients is established with the aid of the Colby equation (see Colby, S. R., “Calculating Synergistic and Antagonistic Responses of Herbicide Combinations”, Weeds 1967, 15, pg 20-22): E=X+Y−(XY/100).
(§2) Using the method of Colby, the presence of asynergistic interaction between two active ingredients is established by first calculating the expected activity, ‘E’, of the mixture based on activities of the two components applied alone. If ‘E’ is lower than the observed activity, synergy is present. In the equation above, ‘X’ is the percentage control observed when bifenthrin applied alone at rate ‘x’. The ‘Y’ term is percentage control observed when fipronil applied alone at rate ‘y’. The equation calculates ‘E’, the expected activity of the mixture of ‘X’ at rate ‘x’ with ‘Y’ at rate ‘y’ if their effects are strictly additive and no interaction has occurred.
The compositions of the present invention were tested for American cockroach (Periplaneta americana) activity in the following manner:
Test solutions were made by dissolving technical grade bifenthrin and fipronil in acetone to provide appropriate rates of application of bifenthrin and fipronil alone, as well as combinations of bifenthrin and fipronil. The active ingredient concentrations tested were from 10 part per million (0.01 mg of active ingredient/mL or 0.01 g/L) to 1000 parts per million (1.0 mg of active ingredient/mL or 1.0 g/L), four replicates per rate. In a fume cabinet, one milliliter of a test solution was applied to a 9 cm Whatman® 2 qualitative filter paper using a calibrated pipette. The application started at the center of the filter paper with individual drops being applied in an outward circular motion so that the entire filter paper was uniformly treated. Acetone only (one mL) was applied in the same manner to provide an untreated control (UTC). The treated filter papers were allowed to dry for two hours. The dried, treated or untreated filter paper was placed into a plastic cup having a base diameter of 90 mm, in which the upper portion of the walls of the plastic cup were coated with a fluoropolymer resin (PFTE-30) insect barrier (Fluoron® available from BioQuip Products Inc.) to prevent the insects from climbing out of the container. Ten late instar, healthy and active American cockroaches (Periplaneta americana) were momentarily immobilized using carbon dioxide and then placed onto the filter paper. The top of the plastic containers were covered with gauze to contain the cockroaches. The plastic containers were maintained at a temperature of 25° C. to 30° C. at ambient relative humidity out of direct sunlight. American cockroach mortality was assessed after 24 hours by counting the number of alive and the number of knocked down/dead cockroaches.
In order to compare the pesticidal effectiveness of the individual and combination treatments the LC 50 and LC 90 values (lethal concentration in ppm that would effectively knock down/kill 50% or 90% of the test pests) were calculated. In calculating the LC values for the various mixtures of bifenthrin and fipronil, probit analysis was conducted on the bifenthrin in concentration of the mixture. […] The values calculated from the data of Table 2 are in Table 2A below.

[2] = system: black house spider (Badumna insignis); assay: Black house spider mortality on treated pine plywood; assay type: in vivo; conditions: suspension concentrate diluted in water, 24 h
Text: as §1, §2
The compositions of the present invention were tested for black house spider (Badumna insignis) activity in the following manner:
Formulations of the test compounds were made as follows: • 1).
The testing was conducted on pine plywood surfaces that had dimensions of 20 cm×20 cm. The above formulations were diluted in water to achieve the desired concentration rate in grams of active ingredient per liter prior to application to the pine plywood. Each treatment was applied using an airbrush sprayer and compressed air as the propellant. The equipment was calibrated prior to use and the treatments were applied to the pine plywood surfaces at a rate of 1 L/10 m^2 (4 mL of final test solution per 20 cm×20 cm pine plywood surface)'. For example, in order to obtain a application rate of […] of active ingredient per 10 m^2, 1.25 mL of the fipronil formulation 1) which contained 100 gram per liter suspension concentrate formulation of fipronil, was diluted in 1 liter of water to make a final test solution. Four mL of the final test solution was sprayed onto the pine plywood surface. The treated pine plywood was allowed to air dry at ambient temperature by storing horizontally away from direct sunlight. Three black house spiders, medium to large in size collected from the field 1 to 2 days prior to testing, were placed separately under untreated portion cups (7 cm diameter by 7 cm deep) on the treated pine plywood surfaces. The untreated portion cups provided an opportunity for the spiders to seek an untreated area. The spiders were assessed after 24 hours exposure by counting the number of alive and the number of knocked down/dead spiders. There were three replications of each treatment.

[3] = probit analysis of Table 2 data, mixtures as bifenthrin:fipronil

In the case of `N#Cc1nn(-c2c(Cl)cc(C(F)(F)F)cc2Cl)c(N)c1[S+]([O-])C(F)(F)F` [Fipronil, (5-amino-[2,6-dichloro-4(trifluoromethyl)phenyl]-4-[(1R,S)-(trifluoromethyl)sulfinyl]-1H-pyrazole-3-carbonitrile], the “% Observed Control” value ([1]; 10 ppm (0.01 mg/mL)) is reported as 0%, the “Mortality Rep 1 dead/alive” value ([1]; 10 ppm (0.01 mg/mL)) is reported as 0/10 and the “Mortality Rep 2 dead/alive” value ([1]; 10 ppm (0.01 mg/mL)) is reported as 0/10. The “Mortality Rep 3 dead/alive” value ([1]; 10 ppm (0.01 mg/mL)) was 0/10, the “Mortality Rep 4 dead/alive” value ([1]; 10 ppm (0.01 mg/mL)) was 0/10 and the “% Observed Control” value ([1]; 20 ppm (0.02 mg/mL)) was 0%. The “Mortality Rep 1 dead/alive” value ([1]; 20 ppm (0.02 mg/mL)) was 0/10, the “Mortality Rep 2 dead/alive” value ([1]; 20 ppm (0.02 mg/mL)) was 0/10 and the “Mortality Rep 3 dead/alive” value ([1]; 20 ppm (0.02 mg/mL)) was 0/10. For the same molecule, the “Mortality Rep 4 dead/alive” value ([1]; 20 ppm (0.02 mg/mL)) was 0/10, the “% Observed Control” value ([1]; 25 ppm (0.025 mg/mL)) was 0% and the “Mortality Rep 1 dead/alive” value ([1]; 25 ppm (0.025 mg/mL)) was 0/10. The “Mortality Rep 2 dead/alive” value ([1]; 25 ppm (0.025 mg/mL)) was 0/10, the “Mortality Rep 3 dead/alive” value ([1]; 25 ppm (0.025 mg/mL)) was 0/10 and the “Mortality Rep 4 dead/alive” value ([1]; 25 ppm (0.025 mg/mL)) was 0/10. The “% Observed Control” value ([1]; 50 ppm (0.05 mg/mL)) was 0%, the “Mortality Rep 1 dead/alive” value ([1]; 50 ppm (0.05 mg/mL)) was 0/10 and the “Mortality Rep 2 dead/alive” value ([1]; 50 ppm (0.05 mg/mL)) was 0/10. For the same molecule, the “Mortality Rep 3 dead/alive” value ([1]; 50 ppm (0.05 mg/mL)) was 0/10, the “Mortality Rep 4 dead/alive” value ([1]; 50 ppm (0.05 mg/mL)) was 0/10 and the “% Observed Control” value ([1]; 100 ppm (0.1 mg/mL)) was 2.5%. For the same molecule, the “Mortality Rep 1 dead/alive” value ([1]; 100 ppm (0.1 mg/mL)) was 0/10, the “Mortality Rep 2 dead/alive” value ([1]; 100 ppm (0.1 mg/mL)) was 0/10 and the “Mortality Rep 3 dead/alive” value ([1]; 100 ppm (0.1 mg/mL)) was 0/10. For the same molecule, the “Mortality Rep 4 dead/alive” value ([1]; 100 ppm (0.1 mg/mL)) was 1/9, the “% Observed Control” value ([1]; 125 ppm (0.125 mg/mL)) was 2.5% and the “Mortality Rep 1 dead/alive” value ([1]; 125 ppm (0.125 mg/mL)) was 0/10. The “Mortality Rep 2 dead/alive” value ([1]; 125 ppm (0.125 mg/mL)) was 0/10, the “Mortality Rep 3 dead/alive” value ([1]; 125 ppm (0.125 mg/mL)) was 0/10 and the “Mortality Rep 4 dead/alive” value ([1]; 125 ppm (0.125 mg/mL)) was 1/9. For the same molecule, the “% Observed Control” value ([1]; 200 ppm (0.2 mg/mL)) was 2.5%, the “Mortality Rep 1 dead/alive” value ([1]; 200 ppm (0.2 mg/mL)) was 0/10 and the “Mortality Rep 2 dead/alive” value ([1]; 200 ppm (0.2 mg/mL)) was 0/10. For the same molecule, the “Mortality Rep 3 dead/alive” value ([1]; 200 ppm (0.2 mg/mL)) was 1/9, the “Mortality Rep 4 dead/alive” value ([1]; 200 ppm (0.2 mg/mL)) was 0/10 and the “% Observed Control” value ([1]; 250 ppm (0.25 mg/mL)) was 45%. For the same molecule, the “Mortality Rep 1 dead/alive” value ([1]; 250 ppm (0.25 mg/mL)) was 0/10, the “Mortality Rep 2 dead/alive” value ([1]; 250 ppm (0.25 mg/mL)) was 8/2 and the “Mortality Rep 3 dead/alive” value ([1]; 250 ppm (0.25 mg/mL)) was 7/3. For the same molecule, the “Mortality Rep 4 dead/alive” value ([1]; 250 ppm (0.25 mg/mL)) was 3/7, the “% Observed Control” value ([1]; 500 ppm (0.5 mg/mL)) was 45% and the “Mortality Rep 1 dead/alive” value ([1]; 500 ppm (0.5 mg/mL)) was 1/9. The “Mortality Rep 2 dead/alive” value ([1]; 500 ppm (0.5 mg/mL)) was 8/2, the “Mortality Rep 3 dead/alive” value ([1]; 500 ppm (0.5 mg/mL)) was 5/5 and the “Mortality Rep 4 dead/alive” value ([1]; 500 ppm (0.5 mg/mL)) was 4/6. The “LC 50” value [1, 3] was 1013 ppm, the “LC 90” value [1, 3] was 1742 ppm and the “Observed % Control” value ([2]; 0.125 g ai/L at 1 L/10 m^2) was 0.0%. The “Observed % Control” value ([2]; 0.25 g ai/L at 1 L/10 m^2) was 0.0% and the “Observed % Control” value ([2]; 0.5 g ai/L at 1 L/10 m^2) was 0.0%.

Reference: patent US20100144819A1, “Synergistic Methods for Control of Pests” (FMC A[…]. LTD., priority 2008, published 2010)
